Experimental data as given in ChEMBL document CHEMBL6103573, “Discovery of novel thienopyridine indole derivatives as inhibitors of tubulin polymerization targeting the colchicine-binding site with potent anticancer activities” (Eur J Med Chem, 2025).
Active and inactive are the calls of the source. The calls are words filed in the database; no cut-off is given here.

How the values were obtained:
[1] = test system: HUVEC; experiment: Anti-angiogenesis activity in HUVEC cells assessed as reduction in cell viability by measuring survival rate at 2 nmol/L incubated for 12 hrs by MTT assay relative to control; type: functional; conditions: Homo sapiens, read-out: Survival
[2] = test system: MGC-803; experiment: Antiproliferative activity against human MGC-803 cells by MTT assay; type: functional, cell-based; conditions: dose 0.25-2 nmol/L
[3] = test system: MGC-803; experiment: Inhibition of colony formation in human MGC-803 cells at 0.5 nmol/L incubated for 7 days by crystal violet staining based colony formation assay relative to control; type: functional; conditions: MGC-803, 168 h, time 7 day
[4] = test system: MGC-803; experiment: Induction of apoptosis in human MGC-803 cells assessed as increase in cleaved PARP expression at 0.25 to 2.0 nmol/L incubated for 48 hrs by Western blotting analysis; type: functional, cell-based; conditions: dose 0.25-2 nmol/L
[5] = test system: HGC-27; experiment: Induction of apoptosis in human HGC-27 cells assessed as increase in dead to live cells ratio at 0.25 to 2.0 nmol/L incubated for 48 hrs by Calcein-AM/PI staining based analysis; type: functional, cell-based; conditions: dose 0.25-2 nmol/L
[6] = test system: HUVEC; experiment: Anti-migratory activity against HUVEC cells assessed as wound healing rate at 0.5 nmol/L measured after 24 hrs by wound healing assay (reference value: 97 %); type: functional, Homo sapiens
[7] = test system: MGC-803; experiment: Induction of apoptosis in human MGC-803 cells assessed as increase in cleaved Caspase-7 expression at 0.25 to 2.0 nmol/L incubated for 48 hrs by Western blotting analysis; type: functional, cell-based; conditions: dose 0.25-2 nmol/L
[8] = test system: MGC-803; experiment: Induction of apoptosis in human MGC-803 cells assessed as nuclei shrinkage at 0.25 to 2.0 nmol/L incubated for 48 hrs by DAPI staining based analysis; type: functional, cell-based; conditions: dose 0.25-2 nmol/L
[9] = test system: MGC-803; experiment: Inhibition of colony formation in human MGC-803 cells incubated for 7 days by crystal violet staining based colony formation assay; type: functional, cell-based; conditions: dose 0.1-0.5 nmol/L, time 7.0 day
[10] = test system: HCT-116; experiment: Antiproliferative activity against human HCT-116 cells assessed as inhibition of cell proliferation incubated for 48 hrs by MTT assay; type: functional, cell-based; conditions: HCT-116, 48 h
[11] = test system: MGC-803; experiment: Antitumor activity against human MGC-803 cells xenografted in female BALB/c-nu nude mouse assessed as increase in cleaved PARP level in tumor at 5 mg/kg, po administrated […] for 11 times and measured after 21 days by immunohistochemical analysis; type: functional, organism-based; conditions: time 21.0 day
[12] = test system: HUVEC; experiment: Anti-vascular activity in HUVEC cells assessed as reduction in length of tubular network incubated for 5 hrs by Matrigel based inverted microscopic analysis; type: functional, cell-based; conditions: Homo sapiens, dose 0.5-2 nmol/L
[13] = Toxicity in female BALB/c-nu nude mouse xenografted with human MGC-803 cells assessed as change in heart morphology at 5 mg/kg, po administrated every other day for 11 times and measured after 21 days by hematoxylin and eosin staining based analysis; type: organism-based; conditions: in vivo, 504 h, time 21 day
[14] = test system: HGC-27; experiment: Induction of apoptosis in human HGC-27 cells assessed as late apoptotic cells at 0.5 nmol/L incubated for 48 hrs by Annexin V-FITC/propidium iodide staining based flow cytometry analysis (reference value: 3.70 %); type: functional
[15] = test system: ECa-109 cell line; experiment: Antiproliferative activity against human EC109 cells assessed as inhibition of cell proliferation incubated for 48 hrs by MTT assay; type: functional, cell-based; conditions: ECa-109, 48 h
[16] = test system: HGC-27; experiment: Antiproliferative activity against human HGC-27 cells assessed as reduction in cell viability incubated for 48 hrs by MTT assay; type: functional, cell-based; conditions: dose 0.25-10 nmol/L
[17] = test system: HGC-27; experiment: Induction of cell cycle arrest in human HGC-27 cells assessed as accumulation of cells at G2/M phase at 2 nmol/L incubated for 24 hrs by RNase A/propidium iodide staining based flow cytometric analysis relative to control; type: functional
[18] = test system: MGC-803; experiment: Antiproliferative activity against human MGC-803 cells assessed as survival rate at 2 nmol/L measured after 48 hrs by MTT assay relative to control; type: functional; conditions: read-out: Survival
[19] = test system: MGC-803; experiment: Induction of apoptosis in human MGC-803 cells assessed as cell contraction at 0.25 to 2.0 nmol/L incubated for 48 hrs by bright field microscopic analysis; type: functional, cell-based; conditions: dose 0.25-2 nmol/L
[20] = target: Tubulin beta (Homo sapiens) (UniProt P68371+Q9H4B7+Q13509+P04350+Q3ZCM7+P07437+Q13885+Q9BVA1+Q9BUF5+A6NNZ2); experiment: Competitive binding affinity to beta-tubulin colchicine binding site in human HGC-27 cells assessed as reduction in EBI-beat tubulin adduct to beta-tubulin ratio preincubated for 2 hrs followed by EBI addition and measured after 2 hrs by Western blotting analysis; type: cell-based; conditions: dose 0.1-1 µmol/L, time 4.0 hrs
[21] = target: T1, Tubulin (Homo sapiens) (UniProt P68371+Q9H4B7+P0DPH7+P68366+Q13509+Q71U36+P04350+Q3ZCM7+P07437+P68363+Q9BQE3+Q6PEY2+Q13885+Q9BVA1+Q9BUF5); experiment: Disruption of microtubule network in human MGC-803 cells assessed as appearance of multinucleation at 0.25 to 2.0 nmol/L incubated for 24 hrs by DAPI staining based fluorescence microscopic analysis; type: cell-based; conditions: dose 0.25-2 nmol/L
[22] = Toxicity in female BALB/c-nu nude mouse xenografted with human MGC-803 cells assessed as change in lung morphology at 5 mg/kg, po administrated every other day for 11 times and measured after 21 days by hematoxylin and eosin staining based analysis; type: organism-based; conditions: in vivo, 504 h, time 21 day
[23] = test system: MGC-803; experiment: Induction of cell cycle arrest at G2 phase in human MGC-803 cells assessed as downregulation of Cyclin B1 level at 0.25 to 2.0 nmol/L measured after 48 hrs by Western blot analysis; type: functional, cell-based; conditions: dose 0.25-2 nmol/L
[24] = test system: HGC-27; experiment: Induction of apoptosis in human HGC-27 cells incubated for 48 hrs by Annexin V-FITC/propidium iodide staining based flow cytometry analysis; type: functional, cell-based; conditions: dose 0.25-2 nmol/L
[25] = test system: HUVEC; experiment: Anti-angiogenesis activity in HUVEC cells assessed as reduction in cell viability incubated from 12 to 48 hrs by MTT assay; type: functional, cell-based; conditions: Homo sapiens, dose < 2.0 nmol/L, time 12-48 hrs
[26] = test system: MGC-803; experiment: Antiproliferative activity against human MGC-803 cells assessed as inhibition of cell proliferation incubated for 48 hrs by MTT assay; type: functional, cell-based; conditions: MGC-803, 48 h
[27] = test system: HGC-27; experiment: Induction of apoptosis in human HGC-27 cells assessed as increase in cleaved PARP expression at 0.25 to 2.0 nmol/L incubated for 48 hrs by Western blotting analysis; type: functional, cell-based; conditions: dose 0.25-2 nmol/L
[28] = target: T1, Tubulin (Homo sapiens); experiment: Disruption of microtubule network in human MGC-803 cells assessed as irregular cellular morphology at 0.25 to 2.0 nmol/L incubated for 24 hrs by DAPI staining based fluorescence microscopic analysis; type: cell-based; conditions: dose 0.25-2 nmol/L
[29] = test system: HUVEC; experiment: Anti-angiogenesis activity in HUVEC cells assessed as effect on cell vitality at <= 1 nmol/L measured within 24 hrs; type: functional, cell-based; conditions: Homo sapiens
[30] = test system: HGC-27; experiment: Anti-migratory activity against human HGC-27 cells assessed as decrease in cell migration at 1 nmol/L measured after 24 hrs by wound healing assay relative to control; type: functional; set-up: scale not given: the % may be the effect or the level left
[31] = test system: MGC-803; experiment: Anti-migratory activity against human MGC-803 cells assessed as decrease in cell migration at 1 nmol/L measured after 24 hrs by wound healing assay relative to control; type: functional; set-up: scale not given: the % may be the effect or the level left
[32] = test system: Huh-7; experiment: Antiproliferative activity against human Huh-7 cells assessed as inhibition of cell proliferation incubated for 48 hrs by MTT assay; type: functional, cell-based; conditions: Huh-7, 48 h
[33] = test system: HGC-27; experiment: Induction of cell cycle arrest in human HGC-27 cells assessed as downregulation of Wee1 level measured after 48 hrs by Western blot analysis; type: functional, cell-based; conditions: dose 0.25-2 nmol/L

## CN(c1ccc2c(ccn2C)c1)c1nc(N2CCCC2)nc2sccc12
[1]
  viability at 0.002 µM: 75.6%
[2]
  Activity: Dose-dependent-effect
[3]
  inhibition at 0.0005 µM: > 90%
[4]
  Activity: Active
[5]
  Activity: Active
[6]
  Activity: 82%
[7]
  Activity: Active
[8]
  Activity: Active
[9]
  inhibition: Dose-dependent-effect
[10]
  IC50: 2.89 nM
[11]
  Activity: Active
[12]
  Activity: Dose-dependent-effect
[13]
  Activity: Non-toxic
[14]
  Activity: 3.5%
[15]
  IC50: 2.19 nM
[16]
  Activity: Dose-dependent-effect
[17]
  Activity: 43.9%
[18]
  viability at 0.002 µM: 35%
[19]
  Activity: Active
[20]
  Activity: Dose-dependent-effect
[21]
  Activity: Active
[22]
  Activity: Non-toxic
[23]
  Activity: Active
[24]
  Activity: Dose-dependent-effect
[25]
  Activity: Dose-dependent-effect
[26]
  IC50: 1.61 nM
[27]
  Activity: Active
[28]
  Activity: Active
[29]
  Activity: Active; Minimal Impact Observed
[30]
  Activity: 17%
[31]
  Activity: 24%
[32]
  IC50: 2.09 nM
[33]
  Activity: Dose-dependent-effect
